In patent US20230020401A1, “METABOLIC REPROGRAMMING OF IMMUNE CELLS TO ENHANCE THE EFFICACY OF PROPHYLACTIC AND T[…]” (priority 2019, published 2023):

Tests used:
[1] = test system: mouse pancreatic cancer cells; assay: Neo-antigen vaccine with SBP-AS08 in mouse pancreatic cancer model; assay type: in vivo, mice; conditions: Kaplan Meier
Protocol: The effect of Mdivi-1 (SBP-AS08) in boosting immunity can be extrapolated to other diseases related to specific immune response (e.g., cancer, etc.). FIG. 36A is a schematic of an experimental layout to test the effect of Mdivi-1 (SBP-AS08) in mouse cancer model. In this experiment, mouse pancreatic cancer cell line lysate was used as the vaccine. 200,000 mouse pancreatic cancer cells were injected in 10 (C57/B6) mice per group via tail vein. Effectiveness of the vaccine was tested by analyzing the metastasis of the cancer cells from the pancreas to lungs (FIG. 36B). Lungs tissues were collected from group of vaccine and vaccine with SBP-AS08 on Day 22 post injections. Two more groups with no treatment and only SBP-AS08 treatment were also included in the analysis.
FIG. 37A and FIG. 37B show Kaplan Meier survival curve of mice that are unvaccinated, treated with SBP-AS08 only, treated with vaccine, or treated with vaccine and SBP-AS08.

[2] = test system: SARS-CoV2 specific cells; assay: SARS-CoV2 S1 subunit vaccine with Mdivi-1 (SBP-AS08) in mice; assay type: in vivo
[3] = test system: NP specific B cells; assay: NP-CGG immunization with Mdivi-1 (day 2, 5, 8) and rechallenge on day 61; assay type: in vivo, mice
Protocol: FIG. 12C is a schematic of an experimental design of multiple injections of Mdivi-1 (SBP-A508) for studying NP-CGG immunization along with or without SBP-A508 treatment. As shown, mice were injected with NP-CGG on day 0, and further injected with SBP-A508 on day 2, Day 5, and Day 8 at a dose of 2.5 mg/kg each. Then, a boost immunization (rechallenge) was given on day 61. Mice were bleed on day 82 for further analysis. FIG. 12D is a bar graph in log scale showing the NP-2 specific antibody production measured by ELISA in control and SBP-AS08 treated group upon rechallenge with NP-CGG in PBS on Day 61. Mice were bleed on Days 0, 60, 68, 75 and 82.
FIG. 13A depicts an experimental design for studying NP-CGG immunization along with or without Mdivi-1 treatment. Briefly, Mdivi-1 treatments were performed at least three times after immunization (day 2, day 5, and day 8), and the blood samples from the subject were analyzed at 2 months after the immunization. […] Mice were bleed on days 0, 60, 68, 75 and 82.
Mice were immunized with NP-CGG and treated with Mdivi-1 at least three times after immunization (day 2, day 5, and day 8). Then, a boost immunization (rechallenge) was given on day 61. Mice were bleed on day 82 for further analysis. […] Mice were bleed on days 0, 60, 68, 75 and 82 after immunization with NP-CGG. […] As shown in FIGS. 17A-B, Mdivi-1 treated mice replenished their memory B cell pool.

[4] = test system: IgG1 memory cells; assay: Effect of Mdivi-1 on IgG1 memory cells formation 6 months post immunization; assay type: in vivo
[5] = test system: T follicular helper (TFh) cells; assay: T follicular helper (TFh) cells in Mdivi-1 treated mice; assay type: in vivo
Description: […] Dot plots shown in FIG. 18B show the frequencies of TFh cells. […] Similarly, FIGS. 23A-B show flow plots (FIG. 23A) and graph (FIG. 23B) displaying enrichment of T follicular helper cells in mice treated with Mdivi-1.

[6] = test system: H1N1; assay: Flu vaccine with Mdivi-1, lethal H1N1 challenge; assay type: in vivo, mice
Protocol: 4 groups of ten mice each (6-8 weeks) were vaccinated intra-nasally with flu vaccine (vaccine group and vaccine+Mdivi-1 (SBP AS-08) group) or saline (No Vaccine group). In day 3, vaccine+Mdivi-1 (SBP AS-08) group and Mdivi-1 only group were administered with 2.5 mg/kg dose of Mdivi-1 (SBP AS-08), while all other groups were administered with saline. In day 60, all groups were administered with a lethal dose of H1N1. FIG. 28A is an individual dot graph showing the weight of mice in each group post lethal H1N1 viral infection. For each time point, dot or a group of dots from left to right represent the sample fo no vaccine, SBP-AS08 only, vaccine only, and vaccine and SBP-AS08, respectively. […] Mice were sacrificed if the weight reached 70% of their original weight or appeared very sick. N=10 per group, *p=0.04, ** p=0.001, ***p=0.0001, ****p<0.0001.
Mice from each group were also sacrificed on Day 7 post lethal influenza infection.

[7] = test system: IgG1 memory B cells; assay: SRBC immunization, Mdivi-1 once on Day 3, analysis on day 11 (IgG1 memory and memory precursor cells, antibodies); assay type: in vivo, mice
Protocol: Mice were immunized with Sheep red blood cells (SRBC) to mount an immune response. One group was treated with Mdivi-1 once at the dose of 2.5 mg/kg on Day 3. Blood samples of all groups were analyzed on day 11 after initial immunization.
FIGS. 21A-B show increased IgG1 memory cell population upon Mdivi-1 treatment. […] show flow plots showing IgG1 population and gating memory B cells in immunized control and Mdivi-1 treated mice.
FIG. 22A show two flow plots showing population of SRBC-specific IgG1 memory precursors in control and Mdivi-1 treated group (right upper boxes). FIG. 22B is the graph showing frequencies of IgG1 memory precursors.
Sera was incubated with SRBC to bind all the SRBC specific antibody, followed by staining SRBCs with anti-IgG1 to determine the SRBC specific IgG1 in control and Mdivi-1 treated group of mice.

[8] = test system: SRBC specific antibody; assay: SRBC immunization in older age mice with Mdivi-1; assay type: in vivo; conditions: 14-24 months old mice; 2.5 mg/kg day 3; day 11
Protocol: 2 groups of eight mice each (14-24 months old age) were immunized intraperitoneally with sheep red blood cells (SRBC). In day 3, one group (SRBC group) was administered with saline, and another group (SRBC+Mdivi-1 (SBP-AS08)) was administered with 2.5 mg/kg dose of Mdivi-1 (SBP AS-08). FIG. 30B and FIG. 30C show scatter plots of SRBC specific anti-IgM antibody or SRBC specific anti-IgG1 antibody of two groups in day 11 after administration of SRBC, respectively. Each dot represents each individual mice in each group.

[9] = test system: pseudo SARS-CoV2 virus; assay type: cell-based, human
[10] = test system: immune cells (GC B cells, memory B cells, non-B cells); assay: Mitochondrial mass of immune cells in vivo after SRBC immunization with SBP-AS08; parameters: species or system mice
Protocol: Seven mice each in two group were immunized with SRBC on Day 0 and Day 4. One group on Day 3 and Day 7 were given SBP-A508 at 2.5 mg/kg. GC B cells were MACS and stained with Tomm20 (red) to stain mitochondria and DAPI to stain nucleus on Day 15. Cells were imaged using confocal microscope.
In another experiment, mice each in two group were immunized with SRBC on Day 0 and Day 5. One group of mice was also injected with SBP-A508 on Day 7 and Day 10. […] Day 15 post immunization, mice were sacrificed and spleens were harvested. Cells were incubated in Mitotracker red dye 200 nM per ml of RPMI for 15 mins at culture conditions. Cells were further stained with surface antibodies B220, CD38, Fas to determine B cells, Germinal Center and non-B cells populations.

[11] = test system: IgG1 memory cells; assay: SRBC immunization Day 0 with SBP-AS08 on day 2, IgG1 memory cells; assay type: in vivo, mice; conditions: SRBC with SBP-AS08 vs SRBC alone
Protocol: Seven mice were immunized with SRBC Day 0, and further injected with SBP-AS08 on day 2. Then, serum from immunized mice was incubated with SRBC and stained by anti-mouse IgG1 antibody to detect the SRBC specific IgG1 antibody. FIG. 12A is the graph showing absolute number of IgG1 memory cells in SRBC alone and SRBC with SBP-A508, indicating the increase of IgG1 memory cells in the mice injected with SBP-AS08.

[12] = test system: IgM and IgG1 cells; assay: Confocal imaging of mitochondria organization upon BCR stimulation; assay type: cell-based; conditions: BCR+Mdivi-1
[13] = test system: IgG1 GC B cells; assay: SRBC immunization of mice with Mdivi-1 treatment (GC and memory B cells); assay type: in vivo
[14] = test system: plasma cells (CD138+ cells); assay: Plasma cell (PC) differentiation in vitro; assay type: cell-based
Protocol: Cells were treated either with Etomoxir to prevent fatty acid oxidation or with 2-deoxy-D-glucose (2DG) to […] to see the effect of fatty acid oxidation in plasma cell differentiation.

[15] = single injection 2.5mg/kg Day 3, Day 15
[16] = 2.5 mg/kg Day 3 and Day 7, mitotracker red MFI, Day 15
[17] = injected Day 7 and Day 10, spleen Day 15, Mitotracker red
[18] = Mdivi-1 two days post immunization

## COc1cc(-n2c(=S)[nH]c3ccccc3c2=O)c(Cl)cc1Cl [Mdivi-1, 3-(2,4-dichloro-5-methoxyphenyl)-2,3-dihydro-2-thioxo-4(1H)-quinazolinone]
[1]
  survival of tumor bearing mice: increases the survival
[2]; 2.5 mg/kg Day 2 and Day 5, boost day 30, Day 37 and Day 44
  efficacy of the vaccine after rechallenge (S1 specific antibody titers in serum): enhances the efficacy
[2]; injections Day 2 and Day 5, Day 15, vs vaccine alone
  number of marker-specific B cells: further increased
[2]; [15]
  number of SARS-CoV2-specific cells: increased
  number of SARS-CoV2-specific memory B cells: increased
  number of anti-SARS-CoV2 antibody producing cells: increased
  number of splenocytes: increased
[3]; 2 months after immunization, vs control
  frequency of NP specific B cells: substantial increase
[3]; after rechallenge
  memory B cell pool: replenished
[3]; after rechallenge, vs control
  number of NP specific IgG1 memory cells: significantly increased
  number of NP specific immune cells: significantly increased
[3]; rechallenge with NP-CGG in PBS on Day 61
  antigen specific antibody generation after antigen boost: substantially increased
[3]; upon recall, control group 33%
  mice showing secondary response upon recall: 100%
[3]; vs control
  NP specific antibody production measured by ELISA: increased
[4]
  immune memory formation (IgG1 expressing memory B cells): facilitates immune memory formation
[5]; FIG. 18B, vs control
  frequency of TFh cells: substantially increased
[5]; FIGS. 23A-B
  T follicular helper cells: enrichment
[5]; vs nontreated control group
  PD-1 molecule expression on T follicular helper cells (median fluorescent intensity): higher
[6]; 2.5 mg/kg day 3 after flu vaccine, lethal H1N1 day 60
  protection against fatal influenza infection (event free survival): boosts the protection
[6]; Day 7 post lethal influenza infection, H&E
  disease progression post H1N1 (lung histology): reduces the disease progression
[7]; 2.5 mg/kg once on Day 3, day 11
  IgG1+CD38+ cell population (IgG1 memory B cells): substantially increased
[7]; FIG. 19
  frequencies of SRBC-specific IgG1 memory precursors: significantly increased
[7]; FIGS. 22A-B
  IgG1+CD38+ cell population (memory precursors cells): substantially increased
[7]; FIGS. 24A-B
  efficacy of immunization (total IgG and SRBC specific IgG antibodies): increases the efficacy of immunization
[8]
  SRBC specific anti-IgG1 antibody: substantially increased
[9]
  % of neutralizing antibody titers (SARs-Cov2 pseudovirus neutralization): higher
[10]; [16]
  mitochondrial mass of germinal center B cells: enhances
  mitochondrial mass of memory B cells: enhances
[10]; [17]
  mitochondrial mass of B cells: significantly increased
  mitochondrial mass of non-B cells: significantly increased
[11]
  absolute number of IgG1 memory cells: increase
[12]
  mitochondrial fission in BCR treated cells: prevents the mitochondrial fission
[13]; Mdivi-1 twice, each 3 days after SRBC, vs control
  frequencies of GC B cells: increased
[13]; [18]
  IgG1 memory B cells: significant increase
  longevity of IgG1 memory B cells: significant increase
  mitochondrial mass of IgG1 memory B cells: significant increase
[13]; Mitotracker green MFI
  mitochondrial mass of IgG1 GC B cells: enhances
[13]; SRBC immunization
  IgG1 B cell loss through mitochondrial fragmentation and apoptosis: prevents IgG1 B cell loss
[13]; active caspase-3, flow cytometry
  survival of IgG1 GC B cells: enhances

## O=CC[C@@H](O)[C@H](O)[C@H](O)CO [2DG, 2-deoxy-D-glucose]
[14]
  number of CD138+ cells: substantially decreased

## CCOC(=O)[C@@]1(CCCCCCOc2ccc(Cl)cc2)CO1 [Etomoxir]
[14]
  number of CD138+ cells: substantially increased
